{
  "source": "ChEMBL document CHEMBL4311992",
  "about": "“Discovery of 3-(((9H-purin-6-yl)amino)methyl)-4,6-dimethylpyridin-2(1H)-one derivatives as novel tubulin polymerization inhibitors for treatment of cancer” (Eur J Med Chem, 2019)",
  "key": {"Homo sapiens [1]": {"species": "Homo sapiens", "experiment": "Inhibition of recombinant human MAPKAPK2 A399G mutant (46 to end residues) assessed as residual activity at 10 uM using KKLNRTLSVA as substrate measured after 40 mins in presence of [gamma33P]ATP by scintillation counting method"}, "[2]": {"target": "Mitogen-activated protein kinase kinase kinase kinase 3 (Homo sapiens) (UniProt Q8IVH8)", "sequence (Q8IVH8 whole entry, the tested form may be a part)": "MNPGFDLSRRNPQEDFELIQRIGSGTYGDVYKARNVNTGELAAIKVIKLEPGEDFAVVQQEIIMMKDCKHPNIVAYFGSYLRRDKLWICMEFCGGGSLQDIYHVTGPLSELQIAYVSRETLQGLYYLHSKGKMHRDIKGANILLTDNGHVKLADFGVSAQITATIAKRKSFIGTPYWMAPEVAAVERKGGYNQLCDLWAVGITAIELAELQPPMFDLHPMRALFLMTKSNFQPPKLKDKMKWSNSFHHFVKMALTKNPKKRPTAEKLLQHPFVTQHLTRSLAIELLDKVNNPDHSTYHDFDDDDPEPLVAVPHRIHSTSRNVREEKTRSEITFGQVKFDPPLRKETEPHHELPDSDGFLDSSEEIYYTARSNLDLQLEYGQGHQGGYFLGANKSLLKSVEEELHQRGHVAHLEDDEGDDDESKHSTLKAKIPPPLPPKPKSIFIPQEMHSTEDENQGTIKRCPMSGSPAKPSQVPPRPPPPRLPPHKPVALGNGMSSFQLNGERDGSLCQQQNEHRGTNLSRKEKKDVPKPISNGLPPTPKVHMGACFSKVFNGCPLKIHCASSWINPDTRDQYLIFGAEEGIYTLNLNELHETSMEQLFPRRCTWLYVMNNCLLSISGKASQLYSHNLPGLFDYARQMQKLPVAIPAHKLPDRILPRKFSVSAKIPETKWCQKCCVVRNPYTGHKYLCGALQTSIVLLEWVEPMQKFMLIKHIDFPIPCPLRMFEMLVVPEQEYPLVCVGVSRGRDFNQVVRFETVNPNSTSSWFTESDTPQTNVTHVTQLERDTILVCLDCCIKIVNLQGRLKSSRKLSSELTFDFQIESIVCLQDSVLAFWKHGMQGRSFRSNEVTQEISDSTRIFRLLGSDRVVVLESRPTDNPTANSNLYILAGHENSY", "experiment": "Inhibition of recombinant human MAP4K3 (1 to 291 residues) assessed as residual activity at 10 uM using RLGRDKYKTLRQIRQ as substrate measured after 40 mins in presence of [gamma33P]ATP by scintillation counting method"}, "Homo sapiens [3]": {"species": "Homo sapiens", "experiment": "Inhibition of recombinant human ARAF Y301D/Y302D mutant (273 to end residues) assessed as residual activity at 10 uM using myelin basic protein as substrate measured after 40 mins in presence of [gamma33P]ATP by scintillation counting method"}, "[4]": {"test_system": "Angiopoietin-1 receptor (Homo sapiens), Q02763 [Q939H,Q940H]", "sequence (Q02763 whole entry Q939H/Q940H)": "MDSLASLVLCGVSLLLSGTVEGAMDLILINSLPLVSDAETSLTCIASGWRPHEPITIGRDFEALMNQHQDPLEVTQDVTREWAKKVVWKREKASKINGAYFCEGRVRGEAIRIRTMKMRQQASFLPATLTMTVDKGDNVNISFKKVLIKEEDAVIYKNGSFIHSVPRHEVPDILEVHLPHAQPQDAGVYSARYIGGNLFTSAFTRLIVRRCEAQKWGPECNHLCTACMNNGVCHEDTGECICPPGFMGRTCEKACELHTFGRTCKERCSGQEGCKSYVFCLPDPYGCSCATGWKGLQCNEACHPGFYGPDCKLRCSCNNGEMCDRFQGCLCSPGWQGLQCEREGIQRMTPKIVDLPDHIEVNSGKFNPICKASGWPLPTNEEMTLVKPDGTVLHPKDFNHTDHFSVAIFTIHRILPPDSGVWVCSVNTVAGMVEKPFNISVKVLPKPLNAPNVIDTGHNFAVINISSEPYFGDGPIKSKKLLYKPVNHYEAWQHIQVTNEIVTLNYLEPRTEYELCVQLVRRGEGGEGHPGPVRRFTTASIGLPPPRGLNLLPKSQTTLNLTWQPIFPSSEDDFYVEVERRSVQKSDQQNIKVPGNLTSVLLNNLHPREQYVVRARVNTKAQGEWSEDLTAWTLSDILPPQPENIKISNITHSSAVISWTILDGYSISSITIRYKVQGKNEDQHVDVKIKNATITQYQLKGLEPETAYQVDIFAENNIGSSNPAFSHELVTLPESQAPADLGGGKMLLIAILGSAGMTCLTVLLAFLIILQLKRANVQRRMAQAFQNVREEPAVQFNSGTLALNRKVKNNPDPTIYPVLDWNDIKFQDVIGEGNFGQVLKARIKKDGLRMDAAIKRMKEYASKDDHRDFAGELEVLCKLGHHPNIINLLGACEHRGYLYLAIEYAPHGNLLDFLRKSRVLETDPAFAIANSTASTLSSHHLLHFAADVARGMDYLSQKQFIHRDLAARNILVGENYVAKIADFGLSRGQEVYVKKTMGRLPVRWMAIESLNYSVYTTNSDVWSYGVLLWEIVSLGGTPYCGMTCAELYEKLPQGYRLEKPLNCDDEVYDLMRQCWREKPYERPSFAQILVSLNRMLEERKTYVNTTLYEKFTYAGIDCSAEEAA", "experiment": "Inhibition of human Tie2 Q939H/Q940H mutant (771 to end residues) using poly(Glu, Tyr) 4:1 as substrate measured after 40 mins in presence of [gamma33P]ATP by scintillation counting method", "parameters": "scale not given: the % may be the effect or the level left"}, "[5]": {"target": "Cyclin-dependent kinase-like 3 (Homo sapiens) (UniProt Q8IVW4)", "experiment": "Inhibition of recombinant human full-length CDKL3 (1 to 303 residues) assessed as residual activity at 10 uM using RRRFRPASPLRGP as substrate measured after 120 mins in presence of [gamma33P]ATP by scintillation counting method"}, "[6]": {"test_system": "Serine/threonine-protein kinase N1 (Homo sapiens), Q16512 [V901I]", "experiment": "Inhibition of human PRK1 V901I mutant (498 to end residues) using KKLNRTLSFAEPG as substrate measured after 40 mins in presence of [gamma33P]ATP by scintillation counting method", "parameters": "scale not given: the % may be the effect or the level left"}, "[7]": {"target": "G protein-coupled receptor kinase 3 (Homo sapiens) (UniProt P35626)", "sequence (P35626 whole entry)": "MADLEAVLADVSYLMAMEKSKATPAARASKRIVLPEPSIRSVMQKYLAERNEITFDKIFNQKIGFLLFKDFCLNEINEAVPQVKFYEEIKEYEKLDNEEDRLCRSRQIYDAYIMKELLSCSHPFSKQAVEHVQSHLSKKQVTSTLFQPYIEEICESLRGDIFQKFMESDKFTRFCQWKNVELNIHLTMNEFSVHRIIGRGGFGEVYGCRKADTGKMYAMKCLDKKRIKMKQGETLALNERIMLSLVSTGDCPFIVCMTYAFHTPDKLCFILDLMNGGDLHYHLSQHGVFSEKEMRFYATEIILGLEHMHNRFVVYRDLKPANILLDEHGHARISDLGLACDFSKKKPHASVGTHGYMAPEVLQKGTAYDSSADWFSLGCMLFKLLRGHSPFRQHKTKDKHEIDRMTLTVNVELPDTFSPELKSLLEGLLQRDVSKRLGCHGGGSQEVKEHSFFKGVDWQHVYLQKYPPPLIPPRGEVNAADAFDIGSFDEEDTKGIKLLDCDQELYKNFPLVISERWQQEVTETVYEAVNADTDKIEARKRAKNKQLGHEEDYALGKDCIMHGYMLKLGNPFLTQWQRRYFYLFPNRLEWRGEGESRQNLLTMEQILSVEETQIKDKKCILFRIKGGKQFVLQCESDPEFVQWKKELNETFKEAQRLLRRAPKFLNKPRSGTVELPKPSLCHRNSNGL", "experiment": "Inhibition of recombinant full-length human GRK5 assessed as residual activity at 10 uM using casein as substrate measured after 40 mins in presence of [gamma33P]ATP by scintillation counting method"}, "[8]": {"target": "Mitogen-activated protein kinase kinase kinase kinase 2 (Homo sapiens) (UniProt Q12851)", "experiment": "Inhibition of recombinant human GCK assessed as residual activity at 10 uM using myelin basic protein as substrate measured after 40 mins in presence of [gamma33P]ATP by scintillation counting method"}, "[9]": {"target": "Serine/threonine-protein kinase Sgk3 (Homo sapiens) (UniProt Q96BR1)", "experiment": "Inhibition of human SGK3 (119 to end residues) using GRPRTSSFAEGKK as substrate measured after 40 mins in presence of [gamma33P]ATP by scintillation counting method", "parameters": "scale not given: the % may be the effect or the level left"}, "SW-620": {"test_system": "SW-620", "experiment": "Induction of apoptosis in human SW620 cells assessed as early apoptotic cells at 100 nM measured after 48 hrs by Annexin V-FITC/propidium iodide staining-based flow cytometry (reference value: 0.773%)", "type": "functional"}, "[10]": {"target": "Insulin receptor (Homo sapiens) (UniProt P06213)", "experiment": "Inhibition of recombinant human activated IR (1005 to 1310 residues) assessed as residual activity at 10 uM using KKKSPGEYVNIEFG as substrate measured after 40 mins in presence of [gamma33P]ATP by scintillation counting method"}, "[11]": {"test_system": "Mast/stem cell growth factor receptor Kit (Homo sapiens), P10721 [D816V]", "experiment": "Inhibition of recombinant human c-Kit D816V mutant (544 to end residues) assessed as residual activity at 10 uM using poly(Glu, Tyr) 4:1 as substrate measured after 40 mins in presence of [gamma33P]ATP by scintillation counting method"}, "Mus musculus": {"species": "Mus musculus", "experiment": "Inhibition of recombinant mouse ARG M982V/A562 mutant (27 to end residues) assessed as residual activity at 10 uM using EAIYAAPFAKKK as substrate measured after 40 mins in presence of [gamma33P]ATP by scintillation counting method"}, "CT26": {"test_system": "CT26", "experiment": "Antiproliferative activity against mouse CT26 cells assessed as reduction in cell viability after 72 hrs by MTT assay", "type": "functional, cell-based", "details": "CT26, 72 h"}, "[12]": {"target": "Serine/threonine-protein kinase ULK2 (Homo sapiens) (UniProt Q8IYT8)", "experiment": "Inhibition of human ULK2 (1 to 306 residues) using casein as substrate measured after 40 mins in presence of [gamma33P]ATP by scintillation counting method", "parameters": "scale not given: the % may be the effect or the level left"}, "[13]": {"target": "Serine/threonine-protein kinase N2 (Homo sapiens) (UniProt Q16513)", "sequence (Q16513 whole entry, looked up)": "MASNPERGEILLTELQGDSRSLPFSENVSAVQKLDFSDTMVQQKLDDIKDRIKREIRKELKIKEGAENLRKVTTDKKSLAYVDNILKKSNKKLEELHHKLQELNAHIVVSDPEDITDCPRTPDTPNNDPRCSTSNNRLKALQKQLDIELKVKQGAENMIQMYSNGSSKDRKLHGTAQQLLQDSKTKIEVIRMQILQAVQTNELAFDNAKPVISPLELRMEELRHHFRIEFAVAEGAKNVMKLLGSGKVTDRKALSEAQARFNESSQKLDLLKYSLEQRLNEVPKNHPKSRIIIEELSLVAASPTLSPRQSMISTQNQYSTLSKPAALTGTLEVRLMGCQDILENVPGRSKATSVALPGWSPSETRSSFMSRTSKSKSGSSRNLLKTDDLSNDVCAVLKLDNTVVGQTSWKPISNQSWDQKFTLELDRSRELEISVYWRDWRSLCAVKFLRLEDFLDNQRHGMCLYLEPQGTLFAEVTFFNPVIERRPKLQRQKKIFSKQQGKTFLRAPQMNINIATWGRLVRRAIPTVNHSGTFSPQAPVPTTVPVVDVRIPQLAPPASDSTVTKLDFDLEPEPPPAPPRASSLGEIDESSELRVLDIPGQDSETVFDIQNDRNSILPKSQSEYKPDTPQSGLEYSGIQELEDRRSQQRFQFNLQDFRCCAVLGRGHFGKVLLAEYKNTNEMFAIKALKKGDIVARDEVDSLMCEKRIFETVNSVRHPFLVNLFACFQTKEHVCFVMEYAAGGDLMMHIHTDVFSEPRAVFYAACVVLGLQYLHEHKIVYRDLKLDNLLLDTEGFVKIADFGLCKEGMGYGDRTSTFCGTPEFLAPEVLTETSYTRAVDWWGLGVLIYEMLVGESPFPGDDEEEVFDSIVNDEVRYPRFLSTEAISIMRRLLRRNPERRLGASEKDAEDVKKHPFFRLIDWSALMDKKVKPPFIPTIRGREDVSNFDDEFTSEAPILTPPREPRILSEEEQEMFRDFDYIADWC", "experiment": "Inhibition of human PRK2 (501 to end residues) using AKRRRLSSLRA as substrate measured after 40 mins in presence of [gamma33P]ATP by scintillation counting method", "parameters": "scale not given: the % may be the effect or the level left"}, "[14]": {"experiment": "Toxicity in nude BALB/c mouse assessed as change in WBC level at 40 to 80 mg/kg, po once daily for 4 weeks measured post-last dose", "type": "organism-based", "details": "in vivo, 672 h"}, "[15]": {"target": "Serine/threonine-protein kinase 35 (Homo sapiens) (UniProt Q8TDR2)", "sequence (Q8TDR2 whole entry)": "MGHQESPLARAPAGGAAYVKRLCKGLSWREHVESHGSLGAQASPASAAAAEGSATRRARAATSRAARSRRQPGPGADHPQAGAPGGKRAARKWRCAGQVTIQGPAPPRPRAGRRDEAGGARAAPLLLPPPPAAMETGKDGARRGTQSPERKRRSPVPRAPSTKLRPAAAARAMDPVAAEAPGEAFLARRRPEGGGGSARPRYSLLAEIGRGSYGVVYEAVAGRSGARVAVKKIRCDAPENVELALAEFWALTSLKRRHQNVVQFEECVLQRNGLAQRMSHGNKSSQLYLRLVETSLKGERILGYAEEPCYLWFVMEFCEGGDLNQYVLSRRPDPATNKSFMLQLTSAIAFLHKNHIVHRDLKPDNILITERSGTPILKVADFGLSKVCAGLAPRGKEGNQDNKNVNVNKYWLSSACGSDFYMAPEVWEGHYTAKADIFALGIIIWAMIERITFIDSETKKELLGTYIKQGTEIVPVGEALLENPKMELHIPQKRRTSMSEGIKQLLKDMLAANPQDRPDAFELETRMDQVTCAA", "experiment": "Inhibition of recombinant full length human CLIK1 assessed as residual activity at 10 uM using RSRSRSRSRSRSRSR as substrate measured after 40 mins in presence of [gamma33P]ATP by scintillation counting method"}, "[16]": {"target": "Phosphatidylinositol 4-phosphate 5-kinase type-1 gamma (Homo sapiens) (UniProt O60331)", "sequence (O60331 whole entry)": "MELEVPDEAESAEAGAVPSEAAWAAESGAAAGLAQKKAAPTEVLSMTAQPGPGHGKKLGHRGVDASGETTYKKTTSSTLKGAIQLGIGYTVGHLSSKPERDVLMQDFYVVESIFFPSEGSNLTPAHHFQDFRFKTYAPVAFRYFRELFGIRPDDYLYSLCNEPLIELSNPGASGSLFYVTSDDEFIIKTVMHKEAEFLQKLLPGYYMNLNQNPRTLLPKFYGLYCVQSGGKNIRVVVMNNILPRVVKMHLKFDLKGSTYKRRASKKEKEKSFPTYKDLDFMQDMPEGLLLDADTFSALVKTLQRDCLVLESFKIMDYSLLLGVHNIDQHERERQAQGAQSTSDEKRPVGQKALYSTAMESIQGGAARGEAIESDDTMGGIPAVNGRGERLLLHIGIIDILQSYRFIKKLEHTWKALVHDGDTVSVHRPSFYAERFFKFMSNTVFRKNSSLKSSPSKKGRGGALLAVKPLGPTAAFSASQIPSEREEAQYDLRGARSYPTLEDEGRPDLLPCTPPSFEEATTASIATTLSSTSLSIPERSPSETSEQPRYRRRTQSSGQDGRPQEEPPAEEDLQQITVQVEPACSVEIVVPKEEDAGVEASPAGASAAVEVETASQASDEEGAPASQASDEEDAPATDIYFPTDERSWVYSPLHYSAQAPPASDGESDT", "experiment": "Inhibition of recombinant full-length human PIP5K1gamma assessed as residual activity at 10 uM using phosphatidylinositol 4-phosphate as substrate measured after 40 mins by HTRF assay"}, "[17]": {"target": "Cyclin-dependent kinase 2/cyclin E1 (Homo sapiens) (UniProt P24864+P24941)", "experiment": "Inhibition of recombinant full-length human CDK2/cyclinE assessed as residual activity at 10 uM using histone H1 as substrate measured after 40 mins in presence of [gamma33P]ATP by scintillation counting method", "type": "protein-complex assay"}, "[18]": {"target": "Eukaryotic translation initiation factor 2-alpha kinase 3 (Homo sapiens) (UniProt Q9NZJ5)", "experiment": "Inhibition of recombinant human PEK (536 to end residues) assessed as residual activity at 10 uM using RSRSRSRSRSRSRSR as substrate measured after 40 mins in presence of [gamma33P]ATP by scintillation counting method"}, "[19]": {"target": "Mitogen-activated protein kinase 12 (Homo sapiens) (UniProt P53778)", "experiment": "Inhibition of recombinant full-length human SAPK3 assessed as residual activity at 10 uM using myelin basic protein as substrate measured after 40 mins in presence of [gamma33P]ATP by scintillation counting method"}, "[20]": {"experiment": "Toxicity in nude BALB/c mouse assessed as change in total protein level at 40 to 80 mg/kg, po once daily for 4 weeks measured post-last dose", "type": "organism-based", "details": "in vivo, 672 h"}, "[21]": {"target": "Fibroblast growth factor receptor 3 (Homo sapiens) (UniProt P22607)", "experiment": "Inhibition of recombinant human FGFR3 (447 to 761 residues) assessed as residual activity at 10 uM using poly(Glu, Tyr) 4:1 as substrate measured after 40 mins in presence of [gamma33P]ATP by scintillation counting method"}, "[22]": {"target": "Death-associated protein kinase 1 (Homo sapiens) (UniProt P53355)", "experiment": "Inhibition of recombinant human DAPK1 (1 to 296 residues) assessed as residual activity at 10 uM using KKLNRTLSFAEPG as substrate measured after 40 mins in presence of [gamma33P]ATP by scintillation counting method"}},
  "data": [
    {"smiles": "Cc1cc(C)c(CNc2nc(Cl)nc3c2ncn3C2CCCC2)c(=O)[nH]1", "values": [
      {"measurement": "Activity", "setting": "Homo sapiens [1]", "result": 124, "unit": "%"},
      {"measurement": "Activity", "setting": "[2]", "result": 104, "unit": "%"},
      {"measurement": "Activity", "setting": "Homo sapiens [3]", "result": 122, "unit": "%"},
      {"measurement": "Activity", "setting": "[4]", "result": 75.5, "unit": "%"},
      {"measurement": "Activity", "setting": "[5]", "result": 126, "unit": "%"},
      {"measurement": "Activity", "setting": "[6]", "result": 98.5, "unit": "%"},
      {"measurement": "Activity", "setting": "[7]", "result": 105, "unit": "%"},
      {"measurement": "Activity", "setting": "[8]", "result": 100, "unit": "%"},
      {"measurement": "Activity", "setting": "[9]", "result": 102, "unit": "%"},
      {"measurement": "Activity", "setting": "SW-620", "result": 3.55, "unit": "%"},
      {"measurement": "Activity", "setting": "[10]", "result": 101, "unit": "%"},
      {"measurement": "Activity", "setting": "[11]", "result": 93, "unit": "%"},
      {"measurement": "Activity", "setting": "Mus musculus", "result": 106, "unit": "%"},
      {"measurement": "IC50", "setting": "CT26", "result": 45.5, "unit": "nM"},
      {"measurement": "Activity", "setting": "[12]", "result": 103, "unit": "%"},
      {"measurement": "Activity", "setting": "[13]", "result": 116, "unit": "%"},
      {"measurement": "Activity", "setting": "[14]", "result": "Non-Toxic"},
      {"measurement": "Activity", "setting": "[15]", "result": 65.5, "unit": "%"},
      {"measurement": "Activity", "setting": "[16]", "result": 99.5, "unit": "%"},
      {"measurement": "Activity", "setting": "[17]", "result": 115, "unit": "%"},
      {"measurement": "Activity", "setting": "[18]", "result": 116, "unit": "%"},
      {"measurement": "Activity", "setting": "[19]", "result": 96.5, "unit": "%"},
      {"measurement": "Activity", "setting": "[20]", "result": "Non-Toxic"},
      {"measurement": "Activity", "setting": "[21]", "result": 94.5, "unit": "%"},
      {"measurement": "Activity", "setting": "[22]", "result": 114, "unit": "%"}
    ]}
  ]
}
